pEC50, pIC50: −log10 of the molar value.
Columns and labels:
[1] = target: T1, PR-B progesterone receptor (Homo sapiens, UniProt P06401); assay: Antagonism at the PR-B progesterone receptor (transactivation assay); assay type: cell-based; conditions: for pIC50: read-out: Antagonistic Activity IC50
T1 sequence (P06401 1-933): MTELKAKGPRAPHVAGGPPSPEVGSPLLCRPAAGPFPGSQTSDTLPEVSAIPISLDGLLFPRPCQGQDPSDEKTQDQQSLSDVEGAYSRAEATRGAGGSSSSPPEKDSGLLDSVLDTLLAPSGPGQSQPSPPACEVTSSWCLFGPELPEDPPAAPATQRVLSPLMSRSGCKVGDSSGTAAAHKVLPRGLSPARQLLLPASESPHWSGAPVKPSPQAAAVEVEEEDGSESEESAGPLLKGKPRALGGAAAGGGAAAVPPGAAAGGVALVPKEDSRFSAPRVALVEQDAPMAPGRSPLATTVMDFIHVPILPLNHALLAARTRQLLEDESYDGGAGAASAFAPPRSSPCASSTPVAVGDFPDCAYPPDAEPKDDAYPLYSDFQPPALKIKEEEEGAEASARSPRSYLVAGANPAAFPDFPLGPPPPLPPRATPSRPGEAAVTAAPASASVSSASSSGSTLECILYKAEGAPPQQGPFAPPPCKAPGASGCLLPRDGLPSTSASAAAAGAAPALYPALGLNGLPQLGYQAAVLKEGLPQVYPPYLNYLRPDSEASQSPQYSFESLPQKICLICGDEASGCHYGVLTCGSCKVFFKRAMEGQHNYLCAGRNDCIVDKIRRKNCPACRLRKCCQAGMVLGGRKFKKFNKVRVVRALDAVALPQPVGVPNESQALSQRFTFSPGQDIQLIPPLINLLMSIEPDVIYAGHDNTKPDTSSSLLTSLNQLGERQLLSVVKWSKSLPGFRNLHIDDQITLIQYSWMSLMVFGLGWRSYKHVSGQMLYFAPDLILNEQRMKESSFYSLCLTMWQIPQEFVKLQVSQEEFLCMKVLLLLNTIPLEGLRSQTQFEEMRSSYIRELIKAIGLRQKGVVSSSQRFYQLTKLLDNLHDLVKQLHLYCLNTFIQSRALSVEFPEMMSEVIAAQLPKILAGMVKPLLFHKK
Experimental: Antagonism at the PR-B Progesterone Receptor
The transactivation assay is carried out as described in WO 02/054064.

[2] = target: T1, PR-B progesterone receptor; assay: Agonism on the PR-B progesterone receptor (transactivation assay); assay type: cell-based; conditions: for pEC50: read-out: Agonistic Activity EC50
Experimental: Agonism on the PR-B Progesterone Receptor
The transactivation assay is carried out as described in Fuhrmann et al. (Fuhrmann U., Hess-Stump H., Cleve A., Neef G., Schwede W., Hoffmann J., Fritzemeier K.-H., Chwalisz K., Journal of Medicinal Chem, 43, 26, 2000, 5010-5016).

Compound | Antagonistic Activity Efficacy [1] | pIC50 [1] | Agonistic Activity Efficacy [2] | pEC50 [2]
Cc1noc(=O)c2ccc(NC(=O)C(O)(C#Cc3ccccc3C(F)(F)F)CC(C)(C)c3ccccc3)cc12 (racemic) [Example 24, rac-6-[2-Hydroxy-4-methyl-4-phenyl-2-[(2-trifluoromethylphenyl)ethynyl]-pentanoylamino]-4-methyl-2,3-benzoxazin-1-one] | 100% | 8.70 | 0% | –
Cc1noc(=O)c2ccc(NC(=O)C(O)(C#Cc3ccccc3)CC3(c4ccccc4Cl)CCCC3)cc12 (racemic) [Example 5, rac-6-{2-[(2-Chlorophenyl)cyclopentyl]methyl-2-hydroxy-4-phenylbut-3-ynoylamino}-4-methyl-2,3-benzoxazin-1-one] | 86% | 9.70 | 10% | 9.70
Cc1noc(=O)c2ccc(NC(=O)C(O)(C#Cc3ccccc3)CC(C)(C)c3ccccc3)cc12 (racemic) [Example 16, rac-6-[2-Hydroxy-4-methyl-4-phenyl-2-(phenylethynyl)pentanoylamino]-4-methyl-2,3-benzoxazin-1-one] | 82% | 9.15 | 13% | 9.30

More lines, in order of rising pIC50 [1], values ahead:

Antagonistic Activity Efficacy [1] | pIC50 [1] | Agonistic Activity Efficacy [2] | pEC50 [2] | Compound
53% | 8.22 | 35% | 8.15 | C#CC(O)(CC(C)(C)c1ccccc1)C(=O)Nc1ccc2c(=O)onc(C)c2c1 (racemic) [Example 14, rac-6-[2-Ethynyl-2-hydroxy-4-methyl-4-phenylpentanoylamino]-4-methyl-2,3-benzoxazin-1-one]
100% | 8.70 | 0% | – | Cc1cc(C)c(C#CC(O)(CC(C)(C)c2ccccc2)C(=O)Nc2ccc3c(=O)onc(C)c3c2)cc1C (racemic) [Example 35, rac-6-[2-[(2,4,5-Trimethylphenyl)ethynyl]-2-hydroxy-4-methyl-4-phenylpentanoylamino]-4-methyl-2,3-benzoxazin-1-one]
89% | 9.70 | 8% | – | COc1ccc(C#CC(O)(CC(C)(C)c2ccccc2)C(=O)Nc2ccc3c(=O)onc(C)c3c2)cc1 (racemic) [Example 18, rac-6-[2-Hydroxy-2-[(4-methoxyphenyl)ethynyl]-4-methyl-4-phenylpentanoylamino]-4-methyl-2,3-benzoxazin-1-one]
88% | 10.52 | 7% | – | Cc1ccc(C#CC(O)(CC(C)(C)c2ccccc2)C(=O)Nc2ccc3c(=O)onc(C)c3c2)cc1 (single isomer, unassigned; (-)) [Example 17b, (−)-6-[2-Hydroxy-4-methyl-2-[(4-methylphenyl)ethynyl]-4-phenylpentanoylamino]-4-methyl-2,3-benzoxazin-1-one]

Source: patent US20070010514A1, “Non-steroidal progesterone receptor modulators” (priority 2005, published 2007)
